# Source: patent publication US9387212B2, “Methods for treating Parkinson's disease” (UCB Pharma S.A., priority 2012, dated 2016)
# Assays:
# PD patients = conditions: Mizuno et al. 2010; Nutt et al., 2008; cited from earlier work
# [1] = tested on: unilateral 6-OHDA-lesioned rat model of Parkinson's disease; assay: General activity (distance travelled, rearing counts) in actometers; format: in vivo; conditions: Radiprodil 3 mg/kg po, Tozadenant 30 mg/kg po; three-way mixed ANOVA, Tukey p<0.05
# Description: Subjects: Males Sprague-Dawley rats (Janvier, France), weighing 250-275 g at the time of surgery and 400-450 g at the time of drug testing are used.
# On the day of surgery, one week after arrival, rats received unilateral 6-OHDA injection into the right medial forebrain bundle. Each rat was administered with Imipramine HCl (Sigma) 15 minutes before surgery to protect norepinephrinergic (NE) neurons. Rats were anesthetized with Ketamine (Ceva, 75 mg/kg) and Xylazine (Bayer, 10 mg/kg) and placed in stereotaxic frame (David Kopf Instrument). […] Each rat was monitored and handled regularly for 3 weeks to ensure full recovery and acclimation to the experimenters and environment. […]
# General activity was recorded within large open-field measuring horizontal and vertical movements and connected to PCs. […] Locomotion was detected and measured by 16 infrared light-beam sensors located on each side of the enclosure at heights of 3 cm. […] Activity counts were recorded by a personal computer. […]
# The level of general activity (distance and rearing) measurement in actometers was assessed by three-way mixed ANOVA with the A2A antagonist (2 levels) and the NR2B antagonist (2 levels) as between-group factors and the time as within-subjects factor (6 or 24 levels). […]
# [2] = tested on: unilateral 6-OHDA-lesioned rats; assay: Video-based behavioural profile analysis (Ethovision) in drug-naive hemi-parkinsonian rats; format: in vivo, rat; conditions: % of the veh-treated rats; for Distance (quantity of movement): Radiprodil 3 mg/kg po, Tozadenant 30 mg/kg po, LD25 ip, LD/BZ 16/4 mg/kg ip; for Adequate body position / Adequate trajectory (gyration radius) / Contra turns (ability to shift direction) / Ipis turns (ability to shift direction): same doses
# Description: (§1) The specific behavioural profile of unilateral 6-OHDA-lesioned rats was recorded via 8 cameras connected to a video acquisition system. Rats under treatment were placed freely in a small environment (rotometers, 25×22 cm) or in large open-field (50×40 cm) and the behaviour was video-recorded for 55 minutes (total of 3300 sec). The placement in the small (rotometers) or large (open-field) environment may depend on the test. The rats were filmed from below as described in the section which concerns the rotational activity.
# (§2) After the in-live data recordings, the videos are subsequently analyzed by the Ethovision program from (Noldus, version 9.0). The animal and its movements and displacements were defined according to three points (nose, center and tail). The movements, position of the body and, the space occupation, were set-up according to the filter analysis defined with specific criteria and thresholds in the program. Various behavioural parameters were analyzed and only the relevant, i.e. the non-correlated ones, were kept for the final behavioural description.
# (§3) The analysis of the other types of behaviours was done with specific parameters selected in the video analysis program (Ethovision 9.0) in order to describe as best as possible the behaviour observed visually and being able to quantify it. The parameters “Distance”, “Counter Clockwise rotations”, “Clockwise rotations”, “Streched” were extracted from the analysis. Additional parameter, the “gyration radius” is calculated from the raw data obtained by the system. • Distance (=“distance”): the total distance moved by the animal (cm) • Counter clockwise (=“ipsilateral turns”): count of the number of 360° turns of ipsilateral rotations in the same sense than that of the lesion. • Clockwise (=“contralateral turns”): count of the number of 360° turns of contralateral rotations in the opposite sense to that of the lesion. • Stretched: (=“adequate body position”): time spent in a position wherein the rat stands on its four paws without any bent position of the trunk. In the program this is the parameter “body elongation” that is used to discriminate the intensity and frequency of the adequate body position. The threshold is fixed at 70%. • Gyration Radius (=“adequate trajectory”): for a specific time interval, average distance between the animal position and its average position within this specific time interval. This parameter reflect the ability of the rats to use the entire space of the arena and is measured in centimeters. Statistical Analysis
# Specific behavioural analysis: The five behaviours kept for the thorough behavioural analysis (i.e. distance, contra turns, ipsi turns, adequate body position and adequate trajectory) were analyzed with parametric statistic however if variance homogeneity was not respected for the data (Bartlett's test for equal variances) these latter were analyzed with non-parametric statistics (Kruskal-Wallis). In both case, one-way ANOVA was performed to discriminate the effect of the various treatments on each independent behaviours. Significant differences between means were determined by Tukey post hoc test or Dunn's Multiple Comparison test with p<0.05.
# The effects of the oral co-administration of Radiprodil (3 mg/kg, po) with Tozadenant (30 mg/kg, po) on the rat behaviour are compared to the testing of: • 1) these compounds separately • 2) a partially active dose of L-Dopa (25 mg/kg, ip) • 3) a fully active dose of L-Dopa/benserazide (16/4 mg/kg, ip).
# The behavioural profile was analyzed in detail with an automated behavioural analysis system based on video recordings (see methods section for the description). In addition, classical measurements (rotometers and actometers) of the behaviour are also used to assess quantity of movements. […]
# [3] = tested on: hemi-parkinsonian L-Dopa-primed rats; assay: Behavioural profile analysis in L-Dopa-primed, fully dyskinetic hemi-parkinsonian rats; format: in vivo, rat; conditions: Radiprodil 3 mg/kg, Tozadenant 30 mg/kg; for Distance, in comparison to the same rats under L-Dopa/benserazide: arrow in cell: increase, decrease or no change vs LD/BZ
# Description: as §1, §2
# The analysis of the Abnormal Involuntary movement (“AIMs”) was performed with a specific parameter defined in Ethovision 9.0. The parameter “body elongation” was used to discriminate both the intensity and the frequency of dyskinetic (i.e. dystonic) position of the rat.
# as §3
# Consecutively to that chronic L-Dopa/benzerazide treatment, they show a very high level of contralateral rotations and AIMs at the end of this chronic treatment when tested in the open-field. […] This absence of cross-sensitization on the level of contralateral rotations and AIMs result was entirely unexpected.
# [4] = tested on: unilateral 6-OHDA-lesioned rats; assay: Chronic add-on treatment to an active dose of L-Dopa/benserazide (10 acquisition sessions; rotometers and open-field); format: in vivo, rat; conditions: plus L-Dopa 14 mg/kg/benserazide 3.5 mg/kg; in comparison to Tozadenant-treated rats (FIG. 16)
# Description: Rotational behaviour was recorded using a home-made computerized system. Rats were fixed in a harness, linked to mechanical sensors that were directly connected to a PC. Each 360° clock-wise or counter clock-wise turn was automatically recorded for up to 240 minutes at the maximum. Throughout the experiments, rats were allocated to individual test cages. Each of 8 clear acrylic chambers (50×40 cm), placed on a level, clear glass bottom, held by a robust frame, could be subdivided into 4 individual square test cages of 25×22 cm. A removable acrylic plate serves as a lid. […] Video sequences were recorded on hard disk for storage and subsequently transferred to PC for analysis and conservation. […]
# Data of the acquisition session under treatment with A2A and/or NR2B antagonist plus L-Dopa/benserazide were analyzed by two-way repeated measures ANOVA with chronic session as within-subjects factor (10 session levels). The reliabilities of the between-mean differences were assessed with planned contrasts using an F statistic. […]
# Ten acquisition sessions (once/day) of L-Dopa (14 mg/kg)/benserazide (3.5 mg/kg) given in co-administration to veh, Tozadenant, Radiprodil or the combination of both compounds increase progressively the level of L-Dopa-induced contralateral rotations when measured in rotometers (FIG. 15). […]
Structure (SMILES),efficacy in clinical trials in PD patients (PD patients),"distance (FIG. 1, right graph) [1]",Distance (quantity of movement) ([2]; 0-20′),Adequate body position ([2]; 0-20′),Adequate trajectory (gyration radius) ([2]; 0-20′),Contra turns (ability to shift direction) ([2]; 0-20′),Ipis turns (ability to shift direction) ([2]; 0-20′),Distance (quantity of movement) ([2]; 30-50′),Adequate body position ([2]; 30-50′),Adequate trajectory (gyration radius) ([2]; 30-50′),Contra turns (ability to shift direction) ([2]; 30-50′),Ipis turns (ability to shift direction) ([2]; 30-50′),"Adequate body position, in comparison to the same rats under L-Dopa/benserazide ([3]; arrow gives direction vs LD/BZ) [% ↑]","Contra turns, in comparison to the same rats under L-Dopa/benserazide ([3]; arrow gives direction vs LD/BZ) [% ↓]","No AIMs, in comparison to the same rats under L-Dopa/benserazide ([3]; arrow gives direction vs LD/BZ) [% ↑]","Severe AIMs, in comparison to the same rats under L-Dopa/benserazide ([3]; arrow gives direction vs LD/BZ) [% ↓]","Distance, in comparison to the same rats under L-Dopa/benserazide [3] [% ↓]","Adequate trajectory, in comparison to the same rats under L-Dopa/benserazide ([3]; arrow gives direction vs LD/BZ) [% ↑]","level of severe AIMs in larger open-field, chronic add-on [4]"
CCn1c(=O)c2c(nc(/C=C/c3ccc(OC)c(OC)c3)n2C)n(CC)c1=O [KW-6002],did not show the expected efficacy,,,,,,,,,,,,,,,,,,
"COc1ccc(N2CCOCC2)c2sc(NC(=O)N3CCC(C)(O)CC3)nc12 [Tozadenant, 4-hydroxy-4-methyl-piperidine-1-carboxylic acid (4-methoxy-7-morpholin-4-yl-benzothiazol-2-yl)-amide]",,Significant effect,+ (200-300%),+ (200-300%),+++ (>500%),+ (200-300%),+ (200-300%),++ (300-500%),++ (300-500%),+++ (>500%),++ (300-500%),++ (300-500%),4151,11,948,12,56,,
O=C(Nc1ccc2[nH]c(=O)oc2c1)C(=O)N1CCC(Cc2ccc(F)cc2)CC1 [Radiprodil],,Significant effect,++ (300-500%),++ (300-500%),++ (300-500%),+ (200-300%),+ (200-300%),+ (200-300%),++ (300-500%),++ (300-500%),+ (200-300%),+ (200-300%),5236,16,1035,7,69,140,level of severe AIMs is reduced
"N[C@@H](Cc1ccc(O)c(O)c1)C(=O)O [LD25, L-dihydroxyphenylalanine]",,,++ (300-500%),+ (200-300%),+++ (>500%),+++ (>500%),++ (300-500%),+++ (>500%),++ (300-500%),+++ (>500%),+++ (>500%),++ (300-500%),,,,,,,
C[C@@H]([C@@H](O)c1ccc(O)cc1)N1CCC(O)(c2ccccc2)CC1 [Traxoprodil],did not show the expected efficacy,,,,,,,,,,,,,,,,,,
